Experimental data published in patent US9365541B2, “Compounds for use in the treatment of parasitic diseases” (IRBM—SCIENCE PARK S.P.A., priority 2012, dated 2016).

Tests used:
human HDAC1 = biological target: T1, human HDAC1 (Homo sapiens, UniProt Q13547); test: Homo sapiens HDAC1 inhibition assay (Fluor-de-Lys, enzymatic); type: biochemical; settings: human HDAC enzymatic assay; read-out: hHDAC IC50
T1 construct: made in house; host or cells: HeLa (ATCC CCL-2), mammalian cells
Summary of the method: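 Product developed with trypsin developer containing 2 μM TSA to stop the reaction; fluorescence measures deacetylase activity, inversely related to inhibition.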

[1] = tested on: Plasmodium falciparum 3D7; test: P. falciparum growth inhibition assay (Pf-LDH); type: cell-based; settings: Plasmodium falciparum, Erythrocyte; P. falciparum 3D7 infected erythrocytes, 72 h incubation, PfLDH readout
Summary of the method: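 P. falciparum 3D7 (chloroquine-sensitive) at 0.25% parasitemia and 2% hematocrit was incubated with compound for 72 h at 37° C under 4% CO2/3% O2/93% N2. After freeze-thaw, PfLDH activity was read at 650 nm with lactate/APAD/NBT/diaphorase mix (pH 8.0).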

T1 sequence (Q13547 whole entry): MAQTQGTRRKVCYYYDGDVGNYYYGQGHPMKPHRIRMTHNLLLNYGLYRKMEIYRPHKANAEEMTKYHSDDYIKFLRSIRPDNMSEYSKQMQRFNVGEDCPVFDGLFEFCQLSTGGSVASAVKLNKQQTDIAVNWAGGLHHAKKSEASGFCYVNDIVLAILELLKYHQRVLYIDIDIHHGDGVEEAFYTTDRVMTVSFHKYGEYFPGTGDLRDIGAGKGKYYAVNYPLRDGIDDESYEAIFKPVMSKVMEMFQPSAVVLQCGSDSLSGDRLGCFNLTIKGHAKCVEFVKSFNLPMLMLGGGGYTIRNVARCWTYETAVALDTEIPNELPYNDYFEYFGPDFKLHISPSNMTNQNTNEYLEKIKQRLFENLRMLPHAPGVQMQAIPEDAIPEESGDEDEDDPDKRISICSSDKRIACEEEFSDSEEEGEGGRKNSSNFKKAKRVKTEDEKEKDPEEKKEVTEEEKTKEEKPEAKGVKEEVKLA

Compound | IC50 (human HDAC1) | EC50 [1]
CNC(=O)CCCCC[C@H](NC(=O)Cc1c(C)[nH]c2ccc(OC)cc12)c1ncc(-c2ccc3ccccc3c2)[nH]1 [Entry 75, (S)-7-(2-(5-methoxy-2-methyl-1H-indol-3-yl)acetamido)-N-methyl-7-(5-(naphthalen-2-yl)-1H-imidazol-2-yl)heptanamide] | < 1000 nM | < 1000 nM
CNC(=O)CCCCC[C@H](NC(=O)c1cncs1)c1ncc(-c2ccc3c(ccn3C)c2)[nH]1 [Entry 132, (S)-N-(1-(5-(1-methyl-1H-indol-5-yl)-1H-imidazol-2-yl)-7-(methylamino)-7-oxoheptyl)thiazole-5-carboxamide] | < 1000 nM | < 1000 nM
CNC(=O)CCCCC[C@H](NC(=O)c1cncs1)c1ncc(-c2cc3ccccc3[nH]c2=O)[nH]1 [Entry 193, (S)-N-(7-(methylamino)-7-oxo-1-(5-(2-oxo-1,2-dihydroquinolin-3-yl)-1H-imidazol-2-yl)heptyl)thiazole-5-carboxamide] | < 1000 nM | < 1000 nM
CNC(=O)CCCCC[C@H](NC(=O)Cc1c(C)[nH]c2ccc(OC)cc12)c1nnc(-c2ccc3ccccc3c2)o1 [Entry 200, (S)-7-(2-(5-methoxy-2-methyl-1H-indol-3-yl)acetamido)-N-methyl-7-(5-(naphthalen-2-yl)-1,3,4-oxadiazol-2-yl)heptanamide] | < 1000 nM | 1000 to 5000 nM
CNC(=O)CCCCC[C@H](NC(=O)Cn1ccnn1)c1ncc(-c2ccc3[nH]ncc3c2)[nH]1 [Entry 157, (S)-7-(2-(1H-1,2,3-triazol-1-yl)acetamido)-7-(5-(1H-indazol-5-yl)-1H-imidazol-2-yl)-N-methyl-heptanamide] | > 5000 nM | > 5000 nM
CNC(=O)CCCCC[C@H](NC(=O)c1cc(C)nn1C)c1ncc(-c2cc3ccccc3nc2OC)[nH]1 [Entry 9, (S)-N-(1-(5-(2-methoxyquinolin-3-yl)-1H-imidazol-2-yl)-7-(methylamino)-7-oxoheptyl)-1,3-dimethyl-1H-pyrazole-5-carboxamide] | < 1000 nM | 1000 to 5000 nM
CNC(=O)CCCCC[C@H](NC(=O)Cc1csc(-c2ccccc2)n1)c1ncc(-c2cc3ccccc3nc2OC)[nH]1 [Entry 185] | 1000 to 5000 nM | 1000 to 5000 nM
CNC(=O)CCCCC[C@H](NC(=O)c1cncs1)c1ncc(-c2ccc3ccccc3c2)[nH]1 [Entry 95, (S)-N-(7-(methylamino)-1-(5-(naphthalen-2-yl)-1H-imidazol-2-yl)-7-oxo-heptyl)thiazole-5-carboxamide] | < 1000 nM | < 1000 nM
CNC(=O)CCCCC[C@H](NC(=O)c1cncs1)c1ncc(-c2ccc3cnccc3c2)[nH]1 [Entry 138, (S)-N-(1-(5-(isoquinolin-6-yl)-1H-imidazol-2-yl)-7-(methylamino)-7-oxoheptyl)thiazole-5-carboxamide] | 1000 to 5000 nM | < 1000 nM
CNC(=O)CCCCC[C@H](NC(=O)[C@@H]1CCCN2CCCC[C@H]12)c1ncc(-c2ccc3ccncc3c2)[nH]1 [Entry 206, (1R,9aR)-N-((S)-1-(5-(isoquinolin-7-yl)-1H-imidazol-2-yl)-7-(methylamino)-7-oxoheptyl)octa-hydro-1H-quinolizine-1-carboxamide] | 1000 to 5000 nM | 1000 to 5000 nM
CNC(=O)CCCCC[C@H](NC(=O)c1cncs1)c1ncc(-c2ccc(Cl)c(Cl)c2)[nH]1 [Entry 129, (S)-N-(1-(5-(3,4-dichlorophenyl)-1H-imidazol-2-yl)-7-(methylamino)-7-oxoheptyl)thiazole-5-carboxamide] | > 5000 nM | > 5000 nM
CNC(=O)CCCCC[C@H](NC(=O)c1cncs1)c1ncc(-c2ccc(-c3ccn(C)n3)cc2)o1 [Entry 222, (S)-N-(1-(5-(4-(1-methyl-1H-pyrazol-3-yl)phenyl)oxazol-2-yl)-7-(methylamino)-7-oxoheptyl)thiazole-5-carboxamide] | > 5000 nM | 1000 to 5000 nM
CNC(=O)CCCCC[C@H](NC(=O)c1cncs1)c1ncc(-c2ccc3[nH]ncc3c2)[nH]1 [Entry 160, (S)-N-(1-(5-(1H-indazol-5-yl)-1H-imidazol-2-yl)-7-(methylamino)-7-oxoheptyl)thiazole-5-carboxamide] | 1000 to 5000 nM | < 1000 nM
CNC(=O)CCCCC[C@H](NC(=O)c1cncs1)c1ncc(-c2ccc3occc3c2)[nH]1 [Entry 136, (S)-N-(1-(5-(benzofuran-5-yl)-1H-imidazol-2-yl)-7-(methylamino)-7-oxoheptyl)thiazole-5-carboxamide] | > 5000 nM | > 5000 nM
CNC(=O)CCCCC[C@H](NC(=O)c1cccc(-n2cccn2)c1)c1ncc(-c2cc3ccccc3nc2OC)[nH]1 [Entry 156, (S)-N-(1-(5-(2-methoxyquinolin-3-yl)-1H-imidazol-2-yl)-7-(methylamino)-7-oxoheptyl)-3-(1H-pyrazol-1-yl)benzamide] | > 5000 nM | 1000 to 5000 nM
CNC(=O)CCCCC[C@H](NC(=O)c1ccns1)c1ncc(-c2ccc3ccncc3c2)[nH]1 [Entry 67] | < 1000 nM | < 1000 nM

Compound | IC50 (human HDAC1) | EC50 [1]
CNC(=O)CCCCC[C@H](NC(=O)c1cncs1)c1ncc(-c2ccc(-c3ccn[nH]3)cc2)[nH]1 [Entry 221, (S)-N-(1-(5-(4-(1H-pyrazol-5-yl)phenyl)-1H-imidazol-2-yl)-7-(methylamino)-7-oxoheptyl)thiazole-5-carboxamide] | 1000 to 5000 nM | < 1000 nM
CNC(=O)CCCCC[C@H](NC(=O)Cc1cn2ccsc2n1)c1ncc(-c2ccc3ccncc3c2)[nH]1 [Entry 168, (S)-7-(2-(imidazo[2,1-b]thiazol-6-yl)acetamido)-7-(5-(isoquinolin-7-yl)-1H-imidazol-2-yl)-N-methyl-heptanamide] | 1000 to 5000 nM | 1000 to 5000 nM
CNC(=O)CCCCC[C@H](NC(=O)c1cncs1)c1ncc(-c2cccc3ccoc23)[nH]1 [Entry 147, (S)-N-(1-(5-(benzofuran-7-yl)-1H-imidazol-2-yl)-7-(methylamino)-7-oxoheptyl)thiazole-5-carboxamide] | 1000 to 5000 nM | 1000 to 5000 nM
CNC(=O)CCCCC[C@H](NC(=O)Cc1ncccn1)c1ncc(-c2ccc3ccncc3c2)[nH]1 [Entry 207] | > 5000 nM | 1000 to 5000 nM
CNC(=O)CCCCC[C@H](NC(=O)c1cncs1)c1ncc(-c2ccc(-n3cccn3)cc2)[nH]1 [Entry 172, (S)-N-(1-(5-(4-(1H-pyrazol-1-yl)phenyl)-1H-imidazol-2-yl)-7-(methylamino)-7-oxoheptyl)thiazole-5-carboxamide] | 1000 to 5000 nM | < 1000 nM
CNC(=O)CCCCC[C@H](NC(=O)c1nnc(C)s1)c1ncc(-c2cc3ccccc3nc2OC)[nH]1 [Entry 31, (S)-N-(1-(5-(2-methoxyquinolin-3-yl)-1H-imidazol-2-yl)-7-(methylamino)-7-oxoheptyl)-5-methyl-1,3,4-thiadiazole-2-carboxamide] | < 1000 nM | 1000 to 5000 nM
CNC(=O)CCCCC[C@H](NC(=O)Cn1ccnn1)c1ncc(-c2cc3ccccc3nc2OC)[nH]1 [Entry 6, (S)-7-(2-(1H-1,2,3-triazol-1-yl)acetamido)-7-(5-(2-methoxyquinolin-3-yl)-1H-imidazol-2-yl)-N-methylheptanamide] | 1000 to 5000 nM | 1000 to 5000 nM
CNC(=O)CCCCC[C@H](NC(=O)Cn1cnnc1)c1ncc(-c2cc3ccccc3nc2OC)[nH]1 [Entry 184, (S)-7-(2-(4H-1,2,4-triazol-4-yl)acetamido)-7-(5-(2-methoxyquinolin-3-yl)-1H-imidazol-2-yl)-N-methylheptanamide] | 1000 to 5000 nM | 1000 to 5000 nM
CNC(=O)CCCCC[C@H](NC(=O)C1(F)CCN(C)CC1)c1ncc(-c2ccc3ccncc3c2)[nH]1 [Entry 111, (S)-4-fluoro-N-(1-(5-(isoquinolin-7-yl)-1H-imidazol-2-yl)-7-(methylamino)-7-oxoheptyl)-1-methylpiperidine-4-carboxamide] | 1000 to 5000 nM | > 5000 nM
CNC(=O)CCCCC[C@H](NC(=O)c1cccc2nc(C)c(C)nc12)c1ncc(-c2ccc3ccccc3c2)[nH]1 [Entry 13, (S)-2,3-dimethyl-N-(7-(methylamino)-1-(5-(naphthalen-2-yl)-1H-imidazol-2-yl)-7-oxo-heptyl)quinoxaline-5-carboxamide] | 1000 to 5000 nM | 1000 to 5000 nM
CNC(=O)CCCCC[C@H](NC(=O)CCN1CCN(C)CC1)c1ncc(-c2cc3ccccc3nc2OC)[nH]1 [Entry 131] | < 1000 nM | 1000 to 5000 nM
CNC(=O)CCCCC[C@H](NC(=O)c1cn2ccsc2n1)c1ncc(-c2ccc3ccccc3c2)[nH]1 [Entry 164, (S)-N-(7-(methylamino)-1-(5-(naphthalen-2-yl)-1H-imidazol-2-yl)-7-oxo-heptyl)imidazo[2,1-b]thiazole-6-carboxamide] | > 5000 nM | > 5000 nM
CNC(=O)CCCCC[C@H](NC(=O)c1cncs1)c1ncc(-c2ccc(-c3ccncc3)cc2)[nH]1 [Entry 29, (S)-N-(7-(methylamino)-7-oxo-1-(5-(4-(pyridin-4-yl)phenyl)-1H-imidazol-2-yl)heptyl)thiazole-5-carboxamide] | 1000 to 5000 nM | 1000 to 5000 nM
CNC(=O)CCCCC[C@H](NC(=O)C1(C)CCCO1)c1ncc(-c2ccc3ccncc3c2)[nH]1 (stereo partly drawn) [Entry 121, N-((S)-1-(5-(isoquinolin-7-yl)-1H-imidazol-2-yl)-7-(methylamino)-7-oxoheptyl)-2-methyltetrahydrofuran-2-carboxamide] | > 5000 nM | > 5000 nM
CCc1nc2ccccc2n1CCC(=O)N[C@@H](CCCCCC(=O)NC)c1ncc(-c2ccc(C(F)(F)F)cc2)[nH]1 [Entry 28] | < 1000 nM | 1000 to 5000 nM
